Results: patent publication US12440433B2, “Brightening cosmetic composition comprising sodium pyruvate as active ingredient” (LG HOUSEHOLD & HEALTH CARE LTD., priority 2020, dated 2025)

Test system: B16F10 cells
Experiment: Melanogenesis inhibitory efficiency test (melanin amount in α-MSH-stimulated B16F10 cells)
Type: cell-based
Details: for Melanin amount (%) / Melanogenesis inhibitory efficiency (symbol): 10 nM α-MSH; for Melanin amount (%) / Melanogenesis inhibitory efficiency / Melanogenesis inhibitory efficiency (symbol): 48 hours; for Melanin amount (%): absorbance at 405 nm, ingredient concentrations (wt %) per Table 1; for Melanogenesis inhibitory efficiency: (Melanin amount upon no treatment − upon treatment)/(upon no treatment) × 100, 10 nM α-MSH; for melanogenesis inhibitory effect (in words): urea or hydroxyethyl urea used alone; for Melanogenesis inhibitory efficiency (symbol): symbol for no effect
Description: In order to confirm melanogenesis inhibitory efficacy caused by sodium pyruvate, first, B16F10 cells were dispensed into a 6-well plate at 1×10^5 cells/well and cultured in a DMEM medium containing 10% FBS and 1% penicillin/streptomycin under conditions of 37° C. and 5% CO2 for 24 hours. […] The resulting cells were harvested, added to 100 μl of a lysis buffer (1N NaOH, 10% DMSO), and then allowed to react at 90° C. for 20 minutes, and melanin amounts were measured at 405 nm (EPOCH, Biotek). The melanin amount measurement results are as follows.

| Compound | Melanin amount (%) | Melanogenesis inhibitory efficiency [%] | melanogenesis inhibitory effect (in words) | Melanogenesis inhibitory efficiency (symbol) |
| --- | --- | --- | --- | --- |
| CC(=O)C(=O)[O-].[Na+] [Comparative Example 11, sodium pyruvate] | 64 | 36 |  |  |
| NC(=O)NCCO [compound 2, hydroxyethyl urea] |  |  | a melanogenesis inhibitory effect was not shown |  |
| NC(=O)NCCO [compound 3, hydroxyethyl urea] | 100 |  |  | *** (100 or more has no effect) |
| NC(N)=O [compound 4, urea] | 100 |  | a melanogenesis inhibitory effect was not shown | *** (100 or more has no effect) |
| CC(=O)C(=O)[O-].[Na+] [compound 8, sodium pyruvate] | 92 | 8 |  |  |
| CC(=O)C(=O)[O-].[Na+] [compound 9, sodium pyruvate] | 82 | 18 |  |  |
| CC(=O)C(=O)[O-].[Na+] [compound 10, sodium pyruvate] | 77 | 23 |  |  |
